Test results from US10370364B1, “Substituted chromenes for treatment of fibrosis or non-alcoholic steatohepatitis” (OSTEONEUROGEN INC., priority 2018, dated 2019).
Read-outs that look alike come from different tables or passages of the source.

How the values were obtained:
ONGHEPA1 cells = assay: TGF-β-induced fibrosis of ONGHEPA1 cells (differentiation into myofibroblasts, phase contrast microscope); type: cell-based, rat; conditions: TGF-β 5 ng/ml, compound 50 μM in DMSO, 24 hours
Description: In order to examine the effect of a compound of the present invention against fibrosis, ONGHEPA1 cells (KCTC13086BP), which are mesenchymal stem cells (MSCs) derived from rat hepatic stellate cells (HSCs) and capable of proliferating indefinitely, were first used. Fibrosis of the ONGHEPA1 cells can be induced by a simple method of treating the cells with TGF-β (transforming growth factor beta) or PDGF (platelet-derived growth factor).
The ONGHEPA1 cells were seeded into medium, cultured for 24 hours, and then treated with TGF-β (5 ng/ml) to induce cell fibrosis. Alternatively, the cells were co-treated with TGF-β and the compound of the present invention (50 μM in DMSO) and cultured for 24 hours. Next, the degree of fibrosis of the cells, that is, the degree of differentiation into myofibroblasts, was examined with a phase contrast microscope (200×).
In this regard, the detailed experimental method followed the paper of Kim et al. (Han-Soo Kim, Jun-Hwan Kim, Ji Yong Lee, Young-Min Yoon, Ik-Hwan Kim, Ho-Sup Yoon, Byung-Soo Youn. Small molecule-mediated reprogramming of epithelial-mesenchymal transition thereby blocking fibrosis. bioRxiv preprint first posted online Feb. 16, 2017; doi: http://dx.doi.org/10.1101/106591).
The effects of the following comparative compounds against fibrosis were examined in the same manner as described in Experimental Example 1-1 above.

[1] = system: Diseased human lung fibroblasts (DHLF); assay: TGF-β-induced fibrosis of diseased human lung fibroblasts (DHLF); type: cell-based; conditions: TGF-β 5 ng/ml, compound 50 μM, 24, 48 or 72 hours
Description: Diseased human lung fibroblasts (DHLF) (Lonza, Swiss) isolated from lung fibrosis patients were seeded into medium, cultured for 24 hours, and then treated with TGF-β (5 ng/ml) to induce fibrosis. Alternatively, the fibroblasts were co-treated with TGF-β and the compound of the present invention (50 μM in DMSO) and cultured for 24, 48 or 72 hours. Next, the degree of differentiation into myofibroblasts was examined with a phase contrast microscope (200×).

[2] = Pharmacokinetics in male SD rats (oral and i.v., various formulations); type: in vivo, rat
Description: To examine the pharmacokinetics of the compound after oral administration, rat models were used.
Male SD rats (weighed 250 to 300 g) were divided into several groups, each consisting of 3 rats, […], after which the amount of the compound present in the plasma was measured with the passage of time. […]
For effective formulation of the compound of the present invention, the pharmacokinetics of various formulations after oral administration were examined according to the same method as described in Experimental Example 2-4 above.

[3] = Concentration of compound in plasma and lung of bleomycin fibrotic mice; type: in vivo; conditions: 1 hour after final administration; pirfenidone 100 mpk, Compound 1 10-100 mpk PO
Description: The amounts of the compound present in the plasma and lung of each of the sacrificed mice (finally administered with each compound at 1 hour before sacrifice) were measured. […] If it is attempted to formulate the compound of the present invention in various manners, it is expected that the compound of the present invention can effectively treat fibrosis even at lower concentrations.

STAM mice = assay: Non-alcoholic steatohepatitis animal model (STAM mice), NAFLD activity score; type: in vivo; conditions: 50 mpk oral, Formulation Example 2, once a day five times a week
Description: STAM mice (SMC Laboratories, Inc., Japan), which are non-alcoholic steatohepatitis animal models, were used as experimental animals. These animal models were administered with streptozotocin immediately after birth, and fed with high-fat-diet after 3 weeks. Then, in the mouse model, non-alcoholic steatohepatitis occurred at 6 to 9 weeks, and liver fibrosis, cirrhosis and liver cancer occurred within 9 to 12 weeks.
Over 6 to 9 weeks after administration of streptozotocin, the compound of the present invention, dissolved in a mixture solution of Tween80 and 0.5% CMC aqueous solution (1:99 (v/v)) (Formulation Example 2), was orally administered to the animal models once a day (five times a week). As controls, telmisartan and OCA (obeticholic acid) were administered in the same manner.
At […] after administration of streptozotocin (a time point after 3-week administration of the compound), the mice were sacrificed, the liver of each mouse was dissected, the invasion of inflammatory cells was observed by […] of the liver tissue, and fibrosis of the liver tissue was observed by Sirius Red staining (see FIG. 42). In addition, the degrees of inflammation, fibrosis, liver cell ballooning and adipose accumulation observed were measured, data integration was performed, and the NAFLD (nonalcoholic fatty liver disease) activity score was statistically processed by t-test.

CYP3A4 = CYP3A4 (Homo sapiens, UniProt P08684)
CYP2D6 [4] = target: T1, CYP2D6 (Homo sapiens, UniProt P10635)
CYP2C9 [5] = target: T2, CYP2C9 (Homo sapiens, UniProt P11712)
CYP2D6 [6] = target: T1, CYP2D6; assay: CYP450 inhibition, CYP2D6
CYP2C9 [7] = target: T2, CYP2C9; assay: CYP450 inhibition, CYP2C9
[8] = male, SD, plasma, iv, 1 mg/kg, rat, 1 mpk i.v, Formulation Example 1
[9] = male, SD, rat, plasma, po, 10 mg/kg, 10 mpk po, Formulation Example 3, NMP/PEG400/Solutol HS/water vehicle
[10] = male, SD, rat, plasma, po, 10 mg/kg, 10 mpk po, Formulation Example 4, NMP/ethanol/PEG200/saline vehicle
[11] = male, SD, rat, plasma, po, 10 mg/kg, 10 mpk po, Formulation Example 5, in 30% HPCD aqueous solution
[12] = male, SD, rat, plasma, po, 200 mg/kg, 200 mpk po, Formulation Example 2

T2 sequence (P11712 whole entry): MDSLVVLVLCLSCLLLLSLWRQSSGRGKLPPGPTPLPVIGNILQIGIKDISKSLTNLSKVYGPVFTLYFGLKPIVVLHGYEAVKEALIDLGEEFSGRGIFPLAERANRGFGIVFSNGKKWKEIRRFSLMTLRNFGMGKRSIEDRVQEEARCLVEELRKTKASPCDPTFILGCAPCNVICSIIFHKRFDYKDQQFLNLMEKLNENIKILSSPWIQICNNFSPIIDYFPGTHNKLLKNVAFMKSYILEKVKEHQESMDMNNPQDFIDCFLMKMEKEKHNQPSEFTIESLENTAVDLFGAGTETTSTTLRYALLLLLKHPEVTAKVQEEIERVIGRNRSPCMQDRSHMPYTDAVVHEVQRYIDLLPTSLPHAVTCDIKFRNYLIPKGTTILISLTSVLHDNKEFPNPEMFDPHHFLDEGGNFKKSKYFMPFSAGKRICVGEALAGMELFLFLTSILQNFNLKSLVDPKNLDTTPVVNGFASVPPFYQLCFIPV
T1 sequence (P10635 whole entry): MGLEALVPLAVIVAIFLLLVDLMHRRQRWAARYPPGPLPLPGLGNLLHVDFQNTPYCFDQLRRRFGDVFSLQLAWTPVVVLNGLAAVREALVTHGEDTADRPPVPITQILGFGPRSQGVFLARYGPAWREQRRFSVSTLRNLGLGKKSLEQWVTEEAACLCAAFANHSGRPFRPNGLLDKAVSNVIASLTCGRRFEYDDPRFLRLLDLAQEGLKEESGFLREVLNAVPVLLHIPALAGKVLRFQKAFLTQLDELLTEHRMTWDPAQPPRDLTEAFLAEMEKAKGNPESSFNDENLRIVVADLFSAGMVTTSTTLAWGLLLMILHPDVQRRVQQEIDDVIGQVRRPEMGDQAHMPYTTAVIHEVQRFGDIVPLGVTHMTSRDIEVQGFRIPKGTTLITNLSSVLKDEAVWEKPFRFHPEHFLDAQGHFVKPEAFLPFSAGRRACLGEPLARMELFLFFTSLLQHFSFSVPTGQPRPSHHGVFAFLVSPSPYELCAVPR
CYP3A4, sequence (P08684 whole entry): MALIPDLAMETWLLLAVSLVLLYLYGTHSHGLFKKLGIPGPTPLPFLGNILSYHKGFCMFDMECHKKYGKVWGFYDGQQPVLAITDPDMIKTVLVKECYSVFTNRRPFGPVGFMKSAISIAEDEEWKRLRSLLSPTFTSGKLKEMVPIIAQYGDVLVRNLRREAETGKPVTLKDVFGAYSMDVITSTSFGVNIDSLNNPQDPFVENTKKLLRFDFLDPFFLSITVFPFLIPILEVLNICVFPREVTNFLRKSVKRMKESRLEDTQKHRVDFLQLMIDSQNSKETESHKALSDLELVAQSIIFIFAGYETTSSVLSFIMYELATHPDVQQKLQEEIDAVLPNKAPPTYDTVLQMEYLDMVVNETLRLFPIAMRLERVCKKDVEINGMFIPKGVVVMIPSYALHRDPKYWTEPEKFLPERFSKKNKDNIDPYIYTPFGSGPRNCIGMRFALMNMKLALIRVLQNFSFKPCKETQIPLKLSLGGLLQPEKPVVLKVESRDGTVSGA

COc1ccc(-c2cc(=O)c3c(O)c(OC)c(OCCN4CCNC(=O)C4)cc3o2)cc1OC [Compound 1, 4-(2-((2-(3,4-dimethoxyphenyl)-5-hydroxy-6-methoxy-4-oxo-4H-chromen-7-yl)oxy)ethyl)piperazin-2-one]
degree of fibrosis of the cells (differentiation into myofibroblasts) (ONGHEPA1 cells): showed no fibrosis symptom | degree of differentiation into myofibroblasts (fibrosis symptom) [1]: showed little or no fibrosis symptom | growth of the cells [1]: inhibited | plasma profile after oral administration (in words) ([2]; Formulation Example 2 compared to Formulation Example 3, FIG. 25): absorbed rapidly in vivo after oral administration and was maintained in the plasma for a long period of time | MRT inf ([2]; male, SD, plasma, 10 mg/kg, rat, 10 mpk po, Formulation Example 5): 3.2 ± 0.7 h | half-life ([2]; male, SD, plasma, 10 mg/kg, rat, 10 mpk po, Formulation Example 5, read-out: t1/2 (converted)): 1.9 ± 0.6 h | MRT inf ([2]; male, SD, plasma, 200 mg/kg, rat, 200 mpk po, Formulation Example 2): 1.7 ± 0.2 h | half-life ([2]; male, SD, plasma, 200 mg/kg, rat, 200 mpk po, Formulation Example 2, read-out: t½ (converted)): 1.5 ± 0.4 h | MRT inf [2, 8]: 0.4 h | Vd [2, 8]: 3.6 ± 0.25 L/kg | C0 ([2]; male, SD, plasma, iv, 1 mg/kg, rat, 1 mpk i.v, Formulation Example 1 (100% DMSO)): 506 ± 130 ng/mL | clearance ([2]; male, SD, plasma, iv, 1 mg/kg, rat, 1 mpk i.v, Formulation Example 1, read-out: CLP (converted)): 112 mL/min/kg | half-life ([2]; male, SD, plasma, iv, 1 mg/kg, rat, 1 mpk i.v, Formulation Example 1, read-out: t1/2 (converted)): 0.38 ± 0.03 h | AUC(0-inf) ([2]; male, SD, rat, plasma, iv, 1 mg/kg, 1 mpk i.v, Formulation Example 1): 149 ± 3 ng·h/mL | AUC(0-t) ([2]; male, SD, rat, plasma, iv, 1 mg/kg, rat, 1 mpk i.v, Formulation Example 1, read-out: AUC(0-t)): 147 ± 2.2 ng·h/mL | bioavailability ([2]; male, SD, rat, plasma, po, 10 mg/kg, 10 mpk po, Formulation Example 2): 1.4% | bioavailability ([2]; male, SD, rat, plasma, po, 10 mg/kg, 10 mpk po, Formulation Example 3): ~9% | AUC(0-inf) [2, 9]: 155 ± 7.5 ng·h/mL | Tmax [2, 9]: 0.25 ± 0.1 h | bioavailability ([2]; male, SD, rat, plasma, po, 10 mg/kg, 10 mpk po, Formulation Example 4): ~3% | AUC(0-inf) [2, 10]: 46.4 ± 14.1 ng·h/mL | Tmax [2, 10]: 0.25 h | bioavailability ([2]; male, SD, rat, plasma, po, 10 mg/kg, 10 mpk po, Formulation Example 5): ~7% | Cmax ([2]; male, SD, rat, plasma, po, 10 mg/kg, 10 mpk po, Formulation Example 5 (30% (w/v) HPCD aqueous solution)): 393 ± 299 ng/mL | AUC(0-inf) [2, 11]: 1080 ± 327 ng·h/mL | Tmax [2, 11]: 1.3 ± 0.6 h | Cmax ([2]; male, SD, rat, plasma, po, 10 mg/kg, rat, 10 mpk po, Formulation Example 2 (Tween80: 0.5% CMC 1:99)): 22.3 ± 8.9 ng/mL | Tmax ([2]; male, SD, rat, plasma, po, 10 mg/kg, rat, 10 mpk po, Formulation Example 2, in Tween80:0.5% CMC aqueous vehicle): 0.4 ± 0.1 h | AUC(0-t) ([2]; male, SD, rat, plasma, po, 10 mg/kg, rat, 10 mpk po, Formulation Example 2, in Tween80:0.5% CMC aqueous vehicle, read-out: AUC(0-t)): 20.4 ± 6.2 ng·h/mL | Cmax ([2]; male, SD, rat, plasma, po, 10 mg/kg, rat, 10 mpk po, Formulation Example 3 (NMP: PEG400: SOLUTOL HS: water 10:20:20:50)): 62.2 ± 37.5 ng/mL | AUC(0-t) ([2]; male, SD, rat, plasma, po, 10 mg/kg, rat, 10 mpk po, Formulation Example 3, NMP/PEG400/Solutol HS/water vehicle, read-out: AUC(0-t)): 126 ± 19.1 ng·h/mL | Cmax ([2]; male, SD, rat, plasma, po, 10 mg/kg, rat, 10 mpk po, Formulation Example 4 (NMP: ethanol: PEG200: normal saline 5:10:30:55)): 46.7 ± 8.8 ng/mL | AUC(0-t) ([2]; male, SD, rat, plasma, po, 10 mg/kg, rat, 10 mpk po, Formulation Example 4, NMP/ethanol/PEG200/saline vehicle, read-out: AUC(0-t)): 42.5 ± 16 ng·h/mL | AUC(0-t) ([2]; male, SD, rat, plasma, po, 10 mg/kg, rat, 10 mpk po, Formulation Example 5, in 30% HPCD aqueous solution, read-out: AUC(0-t)): 1000 ± 314 ng·h/mL | AUC(0-inf) [2, 12]: 426 ± 67.7 ng·h/mL | Tmax [2, 12]: 1 h | bioavailability [2, 12]: 1.4% | Cmax ([2]; male, SD, rat, plasma, po, 200 mg/kg, rat, 200 mpk po, Formulation Example 2 (Tween80: 0.5% CMC 1:99)): 261 ± 41.4 ng/mL | AUC(0-t) ([2]; male, SD, rat, plasma, po, 200 mg/kg, rat, 200 mpk po, Formulation Example 2, read-out: AUC (0-24)): 420 ± 69.3 ng·h/mL | AUC(0-t) ([2]; male, SD, rat, plasma, po, 200 mg/kg, rat, 200 mpk po, Formulation Example 2, read-out: AUC(0-t)): 420 ± 69.3 ng·h/mL | bioavailability ([2]; male, SD, rat, plasma, po, Formulation Example 2, dose not given): 1.4% | AUC_% Extrap (obs) ([2]; rat, 1 mpk i.v, Formulation Example 1): 1.8 ± 0.5% | AUC_% Extrap (obs) ([2]; rat, 10 mpk po, Formulation Example 5): 7.0 ± 5.2% | absorption after oral administration (in words) ([2]; rat, 200 mpk po, 0.5% CMC and about 1% Tween-80): absorbed rapidly in vivo after oral administration | AUC_% Extrap (obs) ([2]; rat, 200 mpk po, Formulation Example 2): 1.6 ± 0.7% | concentration of the compound in the lung [3]: relatively very low | concentration of the compound in the plasma [3]: relatively very low | NAFLD activity score (t-test) (STAM mice): statistically significant anti-NASH effects | inhibitory activity against CYP3A4 (in words) (CYP3A4): little or very low inhibitory activity | inhibitory activity against CYP2D6 (in words) (CYP2D6 [4]): little or very low inhibitory activity | inhibitory activity against CYP2C9 (in words) (CYP2C9 [5]): slight inhibitory activity | IC50 (CYP2D6 [6]): > 50 µM | IC50 (CYP2C9 [7]): 5.54 µM
